Test results from the RepoRT retention time repository.

assay: Waters ACQUITY UPLC BEH C18, 100 × 2.1 mm, 1.7 µm, 40 °C, 0.3 to 0.4 mL/min, estimated dead time 0.63 min; A: water + 0.1% formic acid; B: methanol + 0.1% formic acid; gradient (min/%B) 0/0.5 0.1/0.5 10/80 10.1/99.5 12/99.5; settings: stereoisomer not certain

| Structure (SMILES) | LC retention time |
| --- | --- |
| O=S(=O)(O)ON=C(Cc1ccccc1)SC1OC(CO)C(O)C(O)C1O (configuration not stated) | 2.83 min |
| O=c1c(-c2ccc(O)cc2)coc2c(C3OC(CO)C(O)C(O)C3O)c(O)ccc12 (configuration not stated) | 3.27 min |
| O=c1cc(-c2ccc(O)c(O)c2)oc2c(C3OC(CO)C(O)C(O)C3O)c(O)cc(O)c12 (configuration not stated) | 3.7 min |
| CCCCCCCCCCCCCCC(O)C(O)C(N)CO (configuration not stated) | 7.82 min |
| CC(CSCC(NC(=O)CCC(N)C(=O)O)C(=O)O)C(=O)O (configuration not stated) | 2.39 min |
| CCCSSCC(NC(=O)CCC(N)C(=O)O)C(=O)NCC(=O)O (configuration not stated) | 3.78 min |
| COc1cc(C=CC(=O)OC2C(OC3C(Oc4c(-c5ccc(O)cc5)oc5cc(OC6OC(CO)C(OC7OC(CO)C(O)C(O)C7O)C(O)C6O)cc(O)c5c4=O)OC(CO)C(O)C3O)OC(CO)C(O)C2O)ccc1O (configuration not stated) | 4.01 min |
| CC1CCC2(NC1)OC1CC3C4CC=C5CC(OC6OC(CO)C(OC7OC(CO)C(O)C(OC8OCC(O)C(O)C8O)C7OC7OC(CO)C(O)C(O)C7O)C(O)C6O)CCC5(C)C4CCC3(C)C1C2C (configuration not stated) | 4.72 min |
| COc1cccc(C=CC(=O)O)c1 | 6.03 min |
| NCCCCNC(=O)C=Cc1ccc(O)cc1 | 2.67 min |
| OCC1OC(OC2C(Oc3cc4c(O)cc(O)cc4[o+]c3-c3ccc(O)c(O)c3)OC(CO)C(O)C2O)C(O)C(O)C1O (configuration not stated) | 2.77 min |
| CCC1CN2CCc3cc(OC)c(OC)cc3C2CC1CC1NCCc2cc(O)c(OC)cc21 (configuration not stated) | 2.98 min |
| CC1CCC2(OC1O)OC1CC3C4CC=C5CC(OC6OC(CO)C(OC7OC(C)C(O)C(O)C7O)C(O)C6OC6OC(C)C(O)C(O)C6O)CCC5(C)C4CC(O)C3(C)C1C2C (configuration not stated) | 5.61 min |
| CCC(C)C(=O)OC1C(O)C2C(CN3CC(C)CCC3C2(C)O)C2CC34OC5(O)C(OC(=O)C(C)(O)C(C)O)CCC3(C)C5CC(O)C4C21O (configuration not stated) | 4.65 min |
| C=CCS(=O)CC(NCC1(O)OCC(O)C(O)C1O)C(=O)O (configuration not stated) | 1.66 min |
| CC=C1CC(C)C(C)(O)C(=O)OCC2=CCN3CCC(OC1=O)C23 (configuration not stated) | 3.8 min |
| COc1cc(-c2oc3cc(O)cc(O)c3c(=O)c2O)ccc1O | 6.14 min |
| CC12CC3(O)OC(O1)C1(COC(=O)c4ccccc4)C3CC21OC1OC(CO)C(O)C(O)C1O (configuration not stated) | 3.78 min |
| CC(C)CC(N)C(=O)N1CCCC1C(=O)O (configuration not stated) | 2.72 min |
| CN1CCCC1c1cccnc1 (configuration not stated) | 1.62 min |
| COc1c(O)cc2oc(-c3ccc(O)c(O)c3)c(OC3OC(COC4OC(CO)C(O)C(O)C4O)C(O)C(O)C3O)c(=O)c2c1O (configuration not stated) | 3.63 min |
| CC=C1CN(C)C2Cc3c([nH]c4ccccc34)C(c3cc4[nH]c5c(c4cc3OC)CCN3CC4CC(CC)C3C5(C(=O)OC)C4)CC1C2C(=O)OC (configuration not stated) | 4.94 min |
| O=C(O)CCCC(=O)O | 2.53 min |
| COc1ccc(-c2coc3cc(OC4OC(COC(=O)CC(=O)O)C(O)C(O)C4O)cc(O)c3c2=O)cc1 (configuration not stated) | 6.06 min |
| O=C(CCc1ccc(O)c(O)c1)NCCCCNCCCNC(=O)CCc1ccc(O)c(O)c1 | 3.14 min |
| CC(C)=CCCC(C)(O)C1CCC2(C)C1C(O)CC1C3(C)CCC(O)C(C)(C)C3C(OC3OC(CO)C(O)C(O)C3OC3OC(CO)C(O)C(O)C3O)CC12C (configuration not stated) | 5.94 min |

| Structure (SMILES) | LC retention time |
| --- | --- |
| CCC1CN2CCc3c([nH]c4ccccc34)C2CC1C(=COC)C(=O)OC (configuration not stated) | 5.85 min |
| COC(=O)C1=COC(OC2OC(CO)C(O)C(O)C2O)C2C(CO)=CCC12 (configuration not stated) | 3.42 min |
| CC1OC(OC2C(O)COC(OC3C(C)OC(OC4C(OC(=O)C56CCC(C)(C)CC5C5=CCC7C8(C)CCC(OC9OC(CO)C(O)C(O)C9O)C(C)(C)C8CCC7(C)C5(C)CC6O)OCC(O)C4O)C(O)C3O)C2O)C(O)C(O)C1O (configuration not stated) | 6.12 min |
| O=C(O)C1OC(Oc2c(-c3ccc(O)c(O)c3)oc3cc(O)cc(O)c3c2=O)C(O)C(O)C1O (configuration not stated) | 4.01 min |
| CC(=O)OCC1OC(Oc2ccc3c(=O)c(-c4ccc(O)cc4)coc3c2)C(O)C(O)C1O (configuration not stated) | 4.57 min |
| CC1CCC2C(C)C3C(CC4C5CC=C6CC(OC7OC(CO)C(O)C(O)C7OC7OC(C)C(O)C(O)C7O)CCC6(C)C5CCC43C)N2C1 (configuration not stated) | 4.94 min |
| COc1cc(-c2cc(=O)c3c(O)c(C4OC(CO)C(O)C(O)C4OC4OC(CO)C(O)C(O)C4O)c(O)cc3o2)ccc1O (configuration not stated) | 3.87 min |
| CC(C)=CCc1cc(C2CC(=O)c3c(O)cc(O)c(CC=C(C)C)c3O2)cc(O)c1O (configuration not stated) | 9.09 min |
| O=C(O)CC(=O)NC(Cc1c[nH]c2ccccc12)C(=O)O (configuration not stated) | 4.35 min |
| CC1OC(Oc2cc(O)c3c(=O)c(OC4OC(CO)C(O)C(O)C4OC4OC(CO)C(O)C(O)C4O)c(-c4ccc(O)c(O)c4)oc3c2)C(O)C(O)C1O (configuration not stated) | 2.95 min |
| CC1OC(OC2CCC3(C)C(CCC4(C)C3C=CC3=C5CC(C)(C)CCC5(CO)C(O)CC34C)C2(C)CO)C(O)C(OC2OC(CO)C(O)C(O)C2O)C1O (configuration not stated) | 7.11 min |
| CC1OC(OC2CCC3(C)C(CCC4(C)C3CC=C3C5CC(C)(C)CCC5(C(=O)O)CCC34C)C2(C)CO)C(O)C(OC2OC(CO)C(OC3OC(CO)C(O)C(O)C3O)C(O)C2O)C1O (configuration not stated) | 6.92 min |
| O=c1cc(-c2ccc(O)cc2)oc2c(C3OC(CO)C(O)C(O)C3O)c(O)c(C3OCC(O)C(O)C3O)c(O)c12 (configuration not stated) | 3.41 min |
| CCN1CC2(COC(=O)c3ccccc3N)CCC(OC)C34C5CC6C(OC)CC(O)(C5C6OC)C(O)(C(OC)C23)C14 (configuration not stated) | 5.5 min |
| CC(C)CC(NC(=O)Cc1c[nH]c2ccccc12)C(=O)O (configuration not stated) | 6.2 min |
| O=C(O)C1CCCN1C(=O)C1CCCN1 (configuration not stated) | 1.82 min |
| COc1cc(C=CC(=O)NCCc2ccc(O)cc2)ccc1O | 5.13 min |
| COc1cc2ccc(=O)oc2cc1OC | 5 min |
| Nc1[nH]c(=O)[nH]c(=O)c1OC1OC(CO)C(O)C(O)C1OC1OC(CO)C(O)C1O (configuration not stated) | 2.16 min |
| CN1c2cc(O)c(N=NC(N)=O)cc2CC1S(=O)(=O)O (configuration not stated) | 2.69 min |
| CS(=O)CCCCCCCCN (configuration not stated) | 2.49 min |
| COc1cc(C=CC(=O)OC2C(OC3C(Oc4cc(O)c5c(=O)cc(-c6ccc(O)c(OC)c6)oc5c4)OC(C(=O)O)C(O)C3O)OC(C(=O)O)C(O)C2O)ccc1O (configuration not stated) | 4.68 min |
| COc1ccc(-c2coc3cc(OC4OC(COC(=O)CC(=O)O)C(O)C(O)C4O)c(OC)cc3c2=O)cc1 (configuration not stated) | 5.38 min |
| O=C(C=Cc1ccc(O)cc1)OC1C(Oc2c(-c3ccc(O)cc3)oc3cc(O)cc(O)c3c2=O)OC(CO)C(O)C1O (configuration not stated) | 5.32 min |
| COc1ccc(-c2cc(=O)c3c(O)cc(O)cc3o2)cc1O | 6.78 min |
| CC(C)=CCc1cc(C2CC(=O)c3c(O)cc(O)cc3O2)cc(O)c1O (configuration not stated) | 7.75 min |

| Structure (SMILES) | LC retention time |
| --- | --- |
| CCC(C)C(N)C(=O)NC(CCC(N)=O)C(=O)O (configuration not stated) | 1.82 min |
| CCCCCCCCCCCCOS(=O)(=O)O | 8.65 min |
| NC(=O)CCC(NC(=O)CCCc1ccccc1)C(=O)O (configuration not stated) | 2.88 min |
| COc1ccc2cc1Oc1ccc(cc1)CC1=NCCc3cc(OC)c(cc31)Oc1c(OC)c(OC)c([O-])c3c1C(C2)[NH+](C)CC3 (configuration not stated) | 3.96 min |
| CS(=O)CCCCCCCCC(=O)O (configuration not stated) | 4.43 min |
| CC(C)C(O)(C(=O)OCC1=CCN2CCC(O)C12)C(C)O (configuration not stated) | 2.75 min |
| CC1OC(Oc2c(-c3ccc(O)c(O)c3)oc3cc(O)cc(O)c3c2=O)C(OC2OC(COC(=O)C=Cc3ccc(O)cc3)C(O)C(O)C2O)C(O)C1O (configuration not stated) | 4.67 min |
| CC1OC(OC2C(O)C(CO)OC(Oc3c(-c4ccc(O)cc4)oc4cc(O)cc(O)c4c3=O)C2O)C(O)C(O)C1O (configuration not stated) | 4.15 min |
| CC1(C)CCC2(C(=O)OC3OC(CO)C(O)C(O)C3O)CCC3(C)C(=CCC4C5(C)CCC(OC6OC(C(=O)O)C(O)C(O)C6OC6OC(CO)C(O)C(O)C6O)C(C)(C)C5CCC43C)C2C1 (configuration not stated) | 6.18 min |
| CC=C1CN2CCC34C(=C(C=O)C1CC23)Nc1c(O)cccc14 (configuration not stated) | 3.38 min |
| CC(C)=CCCC(C)(OC1OC(CO)C(O)C(O)C1O)C1CCC2(C)C1C(O)CC1C3(C)CCC(O)C(C)(C)C3CCC12C (configuration not stated) | 9.51 min |
| COC(=O)C1(O)CC23CCCN4CCC5(c6ccc7c(c6NC15CC2)OCO7)C43 (configuration not stated) | 3.61 min |
| CC(CCC1(O)OC2CC3C4CC=C5CC(O)CC(OC6OC(CO)C(O)C(O)C6O)C5(C)C4CCC3(C)C2C1C)COC1OC(CO)C(O)C(O)C1OC1OC(C)C(O)C(O)C1O (configuration not stated) | 4.34 min |
| CC(C)CC(NC(=O)C(C)N)C(=O)O (configuration not stated) | 2.36 min |
| CCC12CCCN3CCc4c(n(c5ccccc45)C(O)(C(=O)OC)C1)C32 (configuration not stated) | 4.5 min |
| Cc1cc2[nH]c(=O)c(=O)n(CC(O)C(O)C(O)CO)c2cc1C (configuration not stated) | 3.3 min |
| C=CC1C(OC2OC(CO)C(O)C(O)C2O)OC=C(C(=O)O)C1Cc1nccc2c1[nH]c1ccccc12 (configuration not stated) | 3.72 min |
| CCC1CN2CCc3cc(OC)c(OC)cc3C2CC1CC1NCCc2cc(OC)c(OC)cc21 (configuration not stated) | 3.41 min |
| CCCCCCCCCCCCCCCC(=O)OCC(O)COP(=O)(O)OCCNC1OC(CO)C(O)C(O)C1O (configuration not stated) | 9.72 min |
| COc1cc(C(O)C(CO)Oc2c(OC)cc(-c3cc(=O)c4c(O)cc(O)cc4o3)cc2OC)ccc1O (configuration not stated) | 6.2 min |
| O=C(O)C1OC(OC2C(Oc3cc(O)c4c(=O)cc(-c5ccc(O)c(O)c5)oc4c3)OC(C(=O)O)C(O)C2O)C(O)C(O)C1O (configuration not stated) | 4 min |
| CC1(C(=O)O)CCC2(C)CCC3(C)C(=CC(=O)C4C5(C)CCC(OC6OC(C(=O)O)C(O)C(O)C6OC6OC(C(=O)O)C(O)C(O)C6O)C(C)(CO)C5CCC43C)C2C1 (configuration not stated) | 6.36 min |
| O=c1ccc2cc(OC3OC(CO)C(O)C(O)C3O)c(O)cc2o1 (configuration not stated) | 2.87 min |
| CC1CCC2C(C)C3C(CC4C5CC=C6CC(OC7OC(CO)C(OC8OC(C)C(O)C(O)C8O)C(O)C7OC7OC(C)C(O)C(O)C7O)CCC6(C)C5CCC43C)N2C1 (configuration not stated) | 5.01 min |
| O=C(O)CC1CCC(=O)C1CC=CCCO (configuration not stated) | 3.39 min |
